Results from ChEMBL document CHEMBL1137951, “Synthesis and in vitro evaluation of 7-dialkylaminomethylbenzo[g]quinoxaline-5,10-diones” (Bioorg Med Chem Lett, 2004).

Key:
Assay type in all cases: functional, cell-based
[1] = test system: SK-OV-3; assay: In vitro cytotoxic activity against human ovarian carcinoma cell line SK-OV-3 after 72 hr of drug exposure determined by the SRB assay; settings: SK-OV-3, 72 h
[2] = test system: HCT-15; assay: In vitro cytotoxic activity against human colon cancer cell line HCT15 after 72 hr of drug exposure determined by the SRB assay; settings: HCT-15, 72 h
[3] = test system: T47D; assay: In vitro cytotoxic activity against human breast cancer cell line T-47D after 72 hr of drug exposure determined by the SRB assay
[4] = test system: MDA-MB-468; assay: In vitro cytotoxic activity against human breast cancer cell line MD-MB-468 after 72 hr of drug exposure determined by the SRB assay; settings: MDA-MB-468, 72 h

Compound	IC50 [1] [nM]	IC50 [2] [nM]	IC50 [3] [nM]	IC50 [4] [nM]
Cc1ccc2c(c1)C(=O)c1nccnc1C2=O	2200	120	1200	1500
O=C1c2ccc(CBr)cc2C(=O)c2nccnc21	1600	400	500	300
CN(C)Cc1ccc2c(c1)C(=O)c1nccnc1C2=O	220	100	100	100
O=C1c2ccc(CN3CCCC3)cc2C(=O)c2nccnc21	250	100	100	100
O=C1c2ccc(CN3CCOCC3)cc2C(=O)c2nccnc21	7000	1300	1300	3200
O=C1c2ccc(CN3CCCCC3)cc2C(=O)c2nccnc21	400	50	80	200
CN1CCN(Cc2ccc3c(c2)C(=O)c2nccnc2C3=O)CC1	10000	1200	3000	3000
O=C1c2ccc(CN(CCO)CCO)cc2C(=O)c2nccnc21	1200	180	900	900
COc1cccc2c1C(=O)c1c(O)c3c(c(O)c1C2=O)C[C@@](O)(C(=O)CO)C[C@@H]3O[C@H]1C[C@H](N)[C@H](O)[C@H](C)O1 [DOXORUBICIN]	–	25	7	7
CO[C@@]12[C@H](COC(N)=O)C3=C(C(=O)C(C)=C(N)C3=O)N1C[C@@H]1N[C@@H]12 [MITOMYCIN]	180	70	400	270
